How the values were obtained:
Assay type in all cases: cell-based, human
MAFA expression [1] = assay: Stage 7 treatment, real-time PCR of MAFA (Example 7); conditions: Stage 7, day 14, 2 μM R428 or 2-5 μM inhibitor substituted for R428, H1-derived cells, mRNA
Experimental: (§1) Cells of the human embryonic stem cell line H1 (WA01) were seeded as single cells at 1×10^5 cells/cm^2 on MATRIGEL™ (1:30 dilution) coated dishes in E8 media. At about 70 to 80% confluency, the cultures were washed in 1× incomplete DPBS followed by incubation with 1× TrypLE™ Express Enzyme for 3 to 5 minutes at 37° C. The released cells were rinsed with E8 and spun at 1000 rpm for 5 minutes. The resulting cell pellet was resuspended in E8 supplemented with 10 μM Y-27632 and the single cell suspension was seeded at approximately 1.3 to 1.5×10^5 cells/cm^2. The cultures were fed every day with E8 medium and differentiation, according to the following protocol, was initiated 48 hrs. following seeding resulting in an about 90% starting confluency.
Stage 6 cells were cultured for fourteen days in BLAR medium supplemented with a 1:100 dilution of ITS-X; 20 mM glucose (final); 1.5 g/L sodium bicarbonate; 2% FAF-BSA; 10 μg/ml of heparin, 10 μM ZnSO4, 1 μM T3 as 3,3′, 5-triiodo-L-thyronine sodium salt, 10 μM ALK5 inhibitor II, 1 mM N-acetyl cysteine. Some cultures also included one of 2 μM R428, 2-5 μM RSK inhibitor II (2-(3,5-Difluoro-4-hydroxy-anilino)-8-isopentyl-5,7-dimethyl-7H-pteridin-6-one) (EMD Millipore; Catalog No, 559286-5MG), 2-5 μM aurora kinase inhibitor II (EMD Millipore, or a combination of 2-5 μM RSK inhibitor II and 2-5 μM aurora kinase II inhibitor.
At Stage 7, day 14, mRNA was collected and compared to undifferentiated human stem cells.

MAFA expression [2] = assay: Small molecule screen at Stage 6 or 7, real-time PCR (Example 2); conditions: added at Stage 6, 1 μM, H1-derived cells at air-liquid interface
Experimental: Cells of the human embryonic stem cell line H1 (WA01) at passage 42 were seeded as single cells at 1×10^5 cells/cm^2 on MATRIGEL™ (1:30 dilution)-coated dishes in a media comprising of DMEM-F12, GlutaMAX™ (1:100 dilution), 0.25 mM ascorbic acid, 100 ng/ml of FGF2 (R & D systems, MN), 1 ng/ml of TGF-β, ITS-X (1:100 dilution), 2% FAF-BSA, and 20 ng/ml of IGF-1, supplemented with 10 μM of Y-27632. Forty-eight hours post-seeding, the cultures were washed in incomplete PBS (phosphate buffered saline without Mg or Ca) followed by incubation with 1× TrypLE™ Express Enzyme (Life Science; Catalog No. 14190) for 3 to 5 minutes at 37° C. The released cells were rinsed with DMEM-F12 and spun at 1000 rpm for 5 minutes. The resulting cell pellet was resuspended in DMEM-F12 supplemented with 10 μM Y-27632, 1× GlutaMAX™, 0.25 mM ascorbic acid, 100 ng/ml FGF2, 1 ng/ml TGF-β, ITS-X at a 1:100 dilution, 2% FAF-BSA and 20 ng/ml of IGF-1 and the single cell suspension was seeded at approximately 1.3 to 1.5×10^5 cells/cm^2. The cultures were fed every day with medium and differentiation, according to the following protocol, was initiated 48 hours following seeding resulting in an about 90% starting confluency. […]
At Stages 6 or 7, various small molecules were added and their effect was evaluated by real-time PCR.

G6PC2 expression = assay: Stage 7 treatment, real-time PCR of G6PC2 (Example 6); conditions: Stage 7, day 7, 2 μM in Stage 7 medium, H1-derived cells, mRNA
Experimental: as §1, with “TrypLET™” for “TrypLE™”
(§2) Stage 6 cells were cultured for seven days in BLAR medium supplemented with a 1:100 dilution of ITS-X; 20 mM glucose (final); 1.5 g/L sodium bicarbonate; 2% FAF-BSA; 10 μg/ml of heparin, 10 μM ZnSO4, 1 μM T3 as 3,3′, 5-triiodo-L-thyronine sodium salt, 10 μM ALK5 inhibitor II, 1 mM N-acetyl cysteine. […]
(§3) At Stage 7, day 7, mRNA was collected and expression of MAFA, UCN3, PDX1, NKX6.1, insulin and G6PC2 evaluated as compared to undifferentiated human stem cells. […]

MAFA expression [3] = assay: Stage 7 treatment, real-time PCR of MAFA (Example 6); conditions: Stage 7, day 7, 2 μM in Stage 7 medium, H1-derived cells, mRNA
Experimental: as §1, with “TrypLET™” for “TrypLE™”
as §2, §3

UCN3 expression = assay: Stage 7 treatment, real-time PCR of UCN3 (Example 6); conditions: Stage 7, day 7, 2 μM in Stage 7 medium, H1-derived cells, mRNA
Experimental: as §1, with “TrypLET™” for “TrypLE™”
as §2, §3

| SMILES | MAFA expression (MAFA expression [1]) | expression of MAFA as compared to untreated cultures (MAFA expression [2]) | G6PC2 expression (G6PC2 expression) | MAFA expression (MAFA expression [3]) | UCN3 expression (UCN3 expression) |
| --- | --- | --- | --- | --- | --- |
| CC(C)CCN1c2nc(Nc3cc(F)c(O)c(F)c3)ncc2N(C)C(=O)C1C (racemic) [RSK inhibitor, 2-(3,5-Difluoro-4-hydroxy-anilino)-8-isopentyl-5,7-dimethyl-7H-pteridin-6-one] | restored MAFA expression | – | – | – | – |
| CC(C)N(C[C@H]1O[C@@H](n2cnc3c(N)ncnc32)[C@H](O)[C@@H]1O)[C@H]1C[C@@H](CCc2nc3ccc(C(C)(C)C)cc3[nH]2)C1 [EPZ-5676, 9H-Purin-6-amine, 9-[5-deoxy-5-[[cis-3-[2-[6-(1,1-dimethylethyl)-1H-benzimidazol-2-yl]ethyl]cyclobutyl](1-methylethyl)amino]-β-D-ribofuranosyl]-] | – | significantly upregulated | – | – | – |
| COc1cc2ncnc(Nc3ccc(NC(=O)c4ccccc4)cc3)c2cc1OC [aurora kinase inhibitor II, 4-(4′-Benzamidoanilino)-6,7-dimethoxyquinazoline] | restored MAFA expression | – | maintenance of UCN3 and G6PC2 expression | increase in MAFA expression | maintenance of UCN3 and G6PC2 expression |

Source: patent US10870832B2, “Use of small molecules to enhance MAFA expression in pancreatic endocrine cells” (Janssen Biotech, Inc., priority 2014, dated 2020)
